Patent US10851073B2, “Protein tyrosine phosphatase inhibitors and methods of use thereof” (Calico Life Sciences LLC, priority 2019, dated 2020)
pIC50: −log10 of the molar value.

Assays:
[1] = target: T1, His tagged full-length PTPN1 protein (Homo sapiens, UniProt P18031); assay: Mobility shift assay (MSA) used to determine potency of PTPN1 inhibitors; format: biochemical; details: enzyme 0.5 nM, substrate 2 μM
T1 construct: made in house
T1 sequence (P18031 with tags, fused parts or gaps): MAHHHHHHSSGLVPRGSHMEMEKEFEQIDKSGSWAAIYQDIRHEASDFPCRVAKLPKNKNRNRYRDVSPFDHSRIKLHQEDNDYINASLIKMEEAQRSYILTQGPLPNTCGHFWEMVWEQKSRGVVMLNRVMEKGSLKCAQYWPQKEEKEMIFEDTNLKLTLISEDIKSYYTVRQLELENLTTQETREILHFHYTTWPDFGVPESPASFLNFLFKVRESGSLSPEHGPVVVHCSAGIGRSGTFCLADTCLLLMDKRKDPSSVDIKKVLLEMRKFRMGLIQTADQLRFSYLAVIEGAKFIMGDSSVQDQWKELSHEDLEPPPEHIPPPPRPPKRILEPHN
Experimental: Example 228: Mobility Shift Assay (MSA) Used to Determine Potency of PTPN1 Inhibitors
Compound activity was determined using in house His tagged full-length PTPN1 protein (SEQ ID NO: 3) in an in vitro enzymatic reaction. The enzymatic assay used to determine activity is a mobility shift assay using a LabChip EZ Reader by Caliper Life Sciences. The enzymatic reaction was carried out in assay buffer (50 mM HEPES pH 7.5, 1 mM EGTA, 10 mM EDTA, 0.01% Tween® 20, and 2 mM DTT). The compounds were dispensed on a white 384 well ProxiPlate™ (PerkinElmer Cat^# 6008289) plate using a Labcyte Echo® liquid handler at varying concentrations (12 point, 1:3 dilution). The enzyme (at 0.5 nM) was incubated with compound for 10 minutes at room temperature. Then the substrate (phosphorylated insulin receptor probe sequence: ((OG488)-(NH—CH2—CH2—O—CH2—CH2—O—CH2—CO)-T-R-D-I-(PY)-E-T-D-Y-Y-R-K-K-NH2) (SEQ ID NO: 2) was added at 2 μM to the plates and incubated for another 10 minutes at room temperature. Finally, a quench solution (water and 4-bromo-3-(2-oxo-2-propoxyethoxy)-5-(3-{[1-(phenylmethanesulfonyl)piperidin-4-yl]amino}phenyl)thiophene-2-carboxylic acid) was added to the plates, which were then run on the EZ Reader (excitation 488 nm, emission 530 nm) to measure % conversion (the amount of phosphorylated substrate which was de-phosphorylated by PTPN1). […] The % inhibition was then used to calculate the IC50 values.

[2] = target: T2, His tagged PTPN2 (TC45) protein (Homo sapiens, UniProt P17706); assay: Mobility shift assay used to determine potency of PTPN2 inhibitors; format: biochemical; details: enzyme 0.5 nM, substrate 2 μM; read-out: PTPN2 MSA IC50
T2 construct: made in house
T2 sequence (P17706 with tags, fused parts or gaps isoform P17706-2): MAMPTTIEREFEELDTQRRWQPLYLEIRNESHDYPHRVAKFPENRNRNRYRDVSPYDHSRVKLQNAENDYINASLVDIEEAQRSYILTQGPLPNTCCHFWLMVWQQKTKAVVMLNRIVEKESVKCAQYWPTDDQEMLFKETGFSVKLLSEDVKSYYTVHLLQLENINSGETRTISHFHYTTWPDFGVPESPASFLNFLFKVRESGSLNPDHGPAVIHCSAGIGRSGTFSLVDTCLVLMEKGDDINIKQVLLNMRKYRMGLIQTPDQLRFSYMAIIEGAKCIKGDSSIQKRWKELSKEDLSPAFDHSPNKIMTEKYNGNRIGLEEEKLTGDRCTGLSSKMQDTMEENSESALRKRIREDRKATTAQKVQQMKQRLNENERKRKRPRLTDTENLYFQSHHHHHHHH
Experimental: Example 227: Mobility Shift Assay Used to Determine Potency of PTPN2 Inhibitors
Compound activity was determined using in house His tagged PTPN2 (TC45) protein (SEQ ID NO: 1) in an in vitro enzymatic reaction. The enzymatic assay used to determine activity was a mobility shift assay using a LabChip EZ Reader by Caliper Life Sciences. The enzymatic reaction was carried out in assay buffer (50 mM HEPES pH 7.5, 1 mM EGTA, 10 mM EDTA, 0.01% Tween® 20, and 2 mM DTT). The compounds were dispensed on a white 384 well ProxiPlate™ (PerkinElmer Catalog #6008289) plate using the Labcyte Echo at varying concentrations (12 point, 1:3 dilution). The enzyme (at 0.5 nM) was incubated with compound for 10 minutes at room temperature. Then the substrate (phosphorylated insulin receptor probe sequence: ((OG488)-(NH—CH2—CH2—O—CH2—CH2—O—CH2—CO)-T-R-D-I-(PY)-E-T-D-Y-Y-R-K-K-NH2) (SEQ ID NO: 2) was added at 2 μM to the plates and incubated for another 10 minutes at room temperature. Finally, a quench solution (water and 4-bromo-3-(2-oxo-2-propoxyethoxy)-5-(3-{[1-(phenylmethanesulfonyl)piperidin-4-yl]amino}phenyl)thiophene-2-carboxylic acid) was added to the plates, which were then run on the EZ Reader (excitation 488 nm, emission 530 nm) to measure % conversion (the amount of phosphorylated substrate which was de-phosphorylated by PTPN2). […] The % inhibition was then used to calculate the IC50 values.

[3] = tested on: B16F10 mouse melanoma cells; assay: B16F10 IFNγ-induced cellular growth inhibition assay; format: cell-based; details: B16-F10, with 0.5 ng/mL IFNγ, read-out: B16F10 GI IC50
Experimental: Example 229: B16F10 IFNγ-Induced Cellular Growth Inhibition Assay B16F10 mouse melanoma cells (ATCC Cat^# CRL-6475, Manassas, Va.) were seeded at a density of 500 cells per well in a 384-well clear bottom plate (Corning Cat^#3765, Corning, N.Y.) in 25 μL total volume of DMEM+10% FBS (Sigma Cat^# D6429 and Sigma Cat^# F4135, St. Louis, Mo.). Cells were allowed to adhere overnight at 37° C.+5% CO2. On the following day, 12.5 μL of mouse IFNγ (RD systems Cat^#485-MI/CF, Minneapolis, Minn.) was added to half of the plate (columns 13-24) at a concentration of 2 ng/mL for a final assay concentration of 0.5 ng/mL of IFNγ. Media only (12.5 μL of DMEM+10% FBS) was added to the remainder of the plate (columns 1-12). Next, compounds resuspended in DMSO (Sigma Cat^# D2650) at 100 mM were diluted in semi-log dilutions in DMSO ranging from 100 mM to 0.001 mM and DMSO only controls were included. The compound/DMSO dilutions were further diluted 1:250 in DMEM+10% FBS, and 12.5 μL of these dilutions were added in triplicates to cells of both treatment arms (with and without IFNγ). Final compound concentrations ranged from 100 μM to 0.001 μM with a final DMSO concentration of 0.1%. Compounds were only dosed in the inner 240 wells, avoiding the outer 2-well perimeter of the plate to minim/ze edge effects. Finally, the plate was loaded into an IncuCyte® S3 Live Cell Analysis System (Essen Bioscience-Sartorius, Ann Arbor, Mich.) maintained in a 37° C.+5% CO2 incubator, allowed to equilibrate for 2 hours, and imaged every 6 hours for 5 days. Confluence over time for compound dilutions in the presence and absence of IFNγ was measured. Growth inhibition values were obtained when the “DMSO/no IFNγ” control reached confluence >95%. At these time points, for each compound the percent growth inhibition at every compound dose level was calculated relative to the “DMSO/with IFNγ” control and used to determine the IC50.

Compound	pIC50 [1]	pIC50 [2]	pIC50 [3]
O=C1CN(c2c(O)cc3c(c2F)CC(C2CCN(CC4CC4)C2)CC3)S(=O)(=O)N1 (mixture of isomers) [Compound 140, 5-{7-[1-(cyclopropylmethyl)pyrrolidin-3-yl]-1-fluoro-3-hydroxy-5,6,7,8-tetrahydronaphthalen-2-yl}-1λ^6,2,5-thiadiazolidine-1,1,3-trione]	7.00 to 8.00	7.00 to 8.00	–
O=C1CN(c2c(O)cc3c(c2F)CN(C[C@H]2C[C@@H]2c2ccncc2)CC3)S(=O)(=O)N1 (racemic) [Compound 248, 5-(8-fluoro-6-hydroxy-2-{[rac-(1R,2R)-2-(pyridin-4-yl)cyclopropyl]methyl}-1,2,3,4-tetrahydroisoquinolin-7-yl)-1λ^6,2,5-thiadiazolidine-1,1,3-trione]	7.00 to 8.00	7.00 to 8.00	–
O=C1CN(c2c(O)cc3c(c2F)C[C@@H]([C@H]2CCNC2)CC3)S(=O)(=O)N1 (single isomer, unassigned) [Compound 138, 5-{(7RS)-1-fluoro-3-hydroxy-7-[(3SR)-pyrrolidin-3-yl]-5,6,7,8-tetrahydronaphthalen-2-yl}-1λ^6,2,5-thiadiazolidine-1,1,3-trione]	7.00 to 8.00	7.00 to 8.00	–
O=C1CN(c2c(O)cc3c(c2F)C[C@@H](NCCCC(F)(F)F)CC3)S(=O)(=O)N1 (single isomer, unassigned) [Compound 147]	7.00 to 8.00	7.00 to 8.00	–
CC(C)(CCN[C@H]1CCc2cc(O)c(N3CC(=O)NS3(=O)=O)c(F)c2C1)C(F)(F)F (single isomer, unassigned) [Compound 176]	7.00 to 8.00	7.00 to 8.00	–
CC(C)CCOC1CCc2cc(O)c(N3CC(=O)NS3(=O)=O)c(F)c2C1 (stereo not shown) [Compound 100, 5-[1-fluoro-3-hydroxy-7-(3-methylbutoxy)-5,6,7,8-tetrahydronaphthalen-2-yl]-1λ^6,2,5-thiadiazolidine-1,1,3-trione]	8.00 to 9.00	7.00 to 8.00	–
O=C1CN(c2c(O)cc3c(c2F)CC(NCCC2CC2)CC3)S(=O)(=O)N1 (stereo not shown) [Compound 101, 5-{7-[(2-cyclopropylethyl)amino]-1-fluoro-3-hydroxy-5,6,7,8-tetrahydronaphthalen-2-yl}-1λ^6,2,5-thiadiazolidine-1,1,3-trione]	8.00 to 9.00	8.00 to 9.00	–
O=C1CN(c2c(O)cc3c(c2F)CC(NCC2CC2)CC3)S(=O)(=O)N1 (stereo not shown) [Compound 103, 5-{7-[(cyclopropylmethyl)amino]-1-fluoro-3-hydroxy-5,6,7,8-tetrahydronaphthalen-2-yl}-1λ^6,2,5-thiadiazolidine-1,1,3-trione]	–	7.00 to 8.00	5.00 to 6.00
O=C1CN(c2c(O)cc3c(c2F)CC(CCC2CC2)CC3)S(=O)(=O)N1 (stereo not shown) [Compound 105, 5-[7-(2-cyclopropylethyl)-1-fluoro-3-hydroxy-5,6,7,8-tetrahydronaphthalen-2-yl]-1λ^6,2,5-thiadiazolidine-1,1,3-trione]	8.00 to 9.00	8.00 to 9.00	–
COC1CCc2cc(O)c(N3CC(=O)NS3(=O)=O)c(F)c2C1 (stereo not shown) [Compound 110, 5-(1-fluoro-3-hydroxy-7-methoxy-5,6,7,8-tetrahydronaphthalen-2-yl)-1λ^6,2,5-thiadiazolidine-1,1,3-trione]	7.00 to 8.00	7.00 to 8.00	–
COC1CCc2c(F)c(O)c(N3CC(=O)NS3(=O)=O)c(F)c2C1 (stereo not shown) [Compound 114, 5-(1,4-difluoro-3-hydroxy-7-methoxy-5,6,7,8-tetrahydronaphthalen-2-yl)-1λ^6,2,5-thiadiazolidine-1,1,3-trione]	7.00 to 8.00	7.00 to 8.00	–
COC(CCNC1CCc2cc(O)c(N3CC(=O)NS3(=O)=O)c(F)c2C1)C(F)(F)F (stereo not shown) [Compound 152, 5-{1-fluoro-3-hydroxy-7-[(4,4,4-trifluoro-3-methoxybutyl)amino]-5,6,7,8-tetrahydronaphthalen-2-yl}-1λ^6,2,5-thiadiazolidine-1,1,3-trione]	–	8.00 to 9.00	–
O=C1CN(c2c(O)cc3c(c2F)CC(NCCOC(F)(F)F)CC3)S(=O)(=O)N1 (stereo not shown) [Compound 169, 5-(1-fluoro-3-hydroxy-7-{[2-(trifluoromethoxy)ethyl]amino}-5,6,7,8-tetrahydronaphthalen-2-yl)-1λ^6,2,5-thiadiazolidine-1,1,3-trione]	–	7.00 to 8.00	4.00 to 5.00
O=C1CN(c2c(O)cc3c(c2F)CN(C(=O)NCC2CCCO2)CC3)S(=O)(=O)N1 (stereo not shown) [Compound 263, 8-fluoro-6-hydroxy-N-[(oxolan-2-yl)methyl]-7-(1,1,4-trioxo-1λ^6,2,5-thiadiazolidin-2-yl)-3,4-dihydroisoquinoline-2(1H)-carboxamide]	–	7.00 to 8.00	–
NCC1Cc2cc(O)c(N3CC(=O)NS3(=O)=O)c(F)c2C1 (stereo not shown) [Compound 267, 5-[2-(aminomethyl)-4-fluoro-6-hydroxy-2,3-dihydro-1H-inden-5-yl]-1λ^6,2,5-thiadiazolidine-1,1,3-trione 2,2,2-trifluoroacetate]	–	7.00 to 8.00	–
CC(C)CCCC1CCc2cc(O)c(N3CC(=O)NS3(=O)=O)c(F)c2C1 (stereo not shown) [Compound 323, 5-[1-fluoro-3-hydroxy-7-(4-methylpentyl)-5,6,7,8-tetrahydronaphthalen-2-yl]-1λ^6,2,5-thiadiazolidine-1,1,3-trione]	–	8.00 to 9.00	–
